Test system: fleas (Ctenocephalides felis)
Test: In vitro evaluation of ingestion activity against fleas
Conditions: flea ingestion test, compound in organic bovine blood (0.5% DMSO), adult fleas, percent mortality between 2 h and 48 h post infestation, read-out: EC50 (the source's name)
Description: In Vitro Evaluation of Ingestion Activity Against Fleas (Ctenocephalides felis)
For flea ingestion tests, serial dilutions of the compound stock were performed using DMSO to achieve the desired range for EC50 and EC90 determination. An aliquot of each compound dilution was added to organic bovine blood with a final DMSO concentration of 0.5% and placed in an artificial feeding container. Fipronil is included to serve as a positive control. Ten newly emerged unfed adult fleas, 0-7 days old Ctenocephalides felis, from a laboratory colony, were aspirated into each vial or cage. The cages for flea ingestion assays were held in a temperature-controlled artificial feeding apparatus to allow continual access to organic bovine blood containing the desired concentration of compound. Fresh aliquots of compound-spiked bovine blood were provided daily for the duration of the study. Fleas were evaluated for percent mortality at various time points between 2 h and 48 h post infestation. Fleas showing normal movement and/or jumping ability were considered viable and those showing no movement after tapping the vials were scored as dead.

Structure (SMILES) | LC50
CCN1C[C@@H](NC(=O)c2ccc(C3=NOC(c4cc(C(F)(F)F)cc(Cl)c4F)(C(F)(F)F)C3)cc2C)CC1=O (single isomer, unassigned) [Example 3.86, 4-[(5R or S)-5-[3-chloro-2-fluoro-5-(trifluoromethyl)phenyl]-5-(trifluoromethyl)-4H-isoxazol-3-yl]-N-[(3S)-1-ethyl-5-oxo-pyrrolidin-3-yl]-2-methyl-benzamide] | < 1 µg/mL
Cc1cc(C2=NOC(c3cc(C(F)(F)F)cc(Cl)c3F)(C(F)(F)F)C2)ccc1C(=O)N[C@H]1CN(CC(F)(F)F)C1=O (single isomer, unassigned) [Example 3.72, 4-[(5R or S)-5-[3-chloro-2-fluoro-5-(trifluoromethyl)phenyl]-5-(trifluoromethyl)-4H-isoxazol-3-yl]-2-methyl-N-[(3S)-2-oxo-1-(2,2,2-trifluoroethyl)azetidin-3-yl]benzamide] | < 3 µg/mL
Cc1cc(C2=NOC(c3cc(C(F)(F)F)cc(Cl)c3F)(C(F)(F)F)C2)ccc1C(=O)N[C@@H]1CCN(CC#N)C1 (single isomer, unassigned) [Example 3.76, 4-[(5S or R)-5-[3-chloro-2-fluoro-5-(trifluoromethyl)phenyl]-5-(trifluoromethyl)-4H-isoxazol-3-yl]-N-[(3R)-1-(cyanomethyl)pyrrolidin-3-yl]-2-methyl-benzamide] | < 1 µg/mL
Cc1cc(C2=NO[C@](c3cc(C(F)(F)F)cc(Cl)c3F)(C(F)(F)F)C2)ccc1C(=O)N[C@H]1C[C@H](C(F)(F)F)C1 (single isomer, unassigned) [Example 3.65, 2-methyl-4-[(5R or S)-5-[3-chloro-2-fluoro-5-(trifluoromethyl)phenyl]-5-(trifluoromethyl)-4H-isoxazol-3-yl]-N-[trans-3-(trifluoromethyl)cyclobutyl] benzamide] | < 1 µg/mL
Cc1cc(C2=NOC(c3cc(C(F)(F)F)cc(Cl)c3F)(C(F)(F)F)C2)ccc1C(=O)NCC1(C#N)CC1 (single isomer, unassigned) [Example 3.77, N-[(1-cyanocyclopropyl)methyl]-2-methyl-4-[(5R or S)-5-[3-chloro-2-fluoro-5-(trifluoromethyl)phenyl]-5-(trifluoromethyl)-4H-isoxazol-3-yl]benzamide] | < 1 µg/mL
Cc1cc(C2=NOC(c3cc(C(F)(F)F)cc(Cl)c3F)(C(F)(F)F)C2)ccc1C(=O)NCc1nc(C#N)cs1 (racemic) [Example 3.23, N-[(4-cyanothiazol-2-yl)methyl]-2-methyl-4-[(5RS)-5-[3-chloro-2-fluoro-5-(trifluoromethyl)phenyl]-5-(trifluoromethyl)-4H-isoxazol-3-yl]benzamide] | < 1 µg/mL
Cc1cc(C2=NOC(c3cc(C(F)(F)F)cc(Cl)c3F)(C(F)(F)F)C2)ccc1C(=O)NC1CN(S(=O)(=O)C(F)(F)F)C1 (single isomer, unassigned) [Example 3.61, 2-methyl-4-[(5R or S)-5-[3-chloro-2-fluoro-5-(trifluoromethyl)phenyl]-5-(trifluoromethyl)-4H-isoxazol-3-yl]-N-[1-(trifluoromethylsulfonyl)azetidin-3-yl]benzamide] | < 3 µg/mL
Cc1cc(C2=NOC(c3cc(C(F)(F)F)cc(Cl)c3F)(C(F)(F)F)C2)ccc1C(=O)NCC1(S(C)(=O)=O)CC1 (single isomer, unassigned) [Example 3.83, 2-methyl-N-[(1-methylsulfonylcyclopropyl)methyl]-4-[(5R or S)-5-[3-chloro-2-fluoro-5-(trifluoromethyl)phenyl]-5-(trifluoromethyl)-4H-isoxazol-3-yl]benzamide] | < 1 µg/mL
Cc1cc(C2=NOC(c3cc(C(F)(F)F)cc(Cl)c3F)(C(F)(F)F)C2)ccc1C(=O)Nc1cnn(CC#N)c1 (single isomer, unassigned) [Example 3.75, N-[1-(cyanomethyl)pyrazol-4-yl]-2-methyl-4-[(5S or R)-5-[3-chloro-2-fluoro-5-(trifluoromethyl)phenyl]-5-(trifluoromethyl)-4H-isoxazol-3-yl]benzamide] | < 3 µg/mL
Cc1cc(C2=NOC(c3cc(C(F)(F)F)cc(Cl)c3F)(C(F)(F)F)C2)ccc1C(=O)NN1CCNC1=O (racemic) [Example 3.25, 2-methyl-N-(2-oxoimidazolidin-1-yl)-4-[(5RS)-5-[3-chloro-2-fluoro-5-(trifluoromethyl)phenyl]-5-(trifluoromethyl)-4H-isoxazol-3-yl]benzamide] | < 3 µg/mL
Cc1cc(C2=NOC(c3cc(C(F)(F)F)cc(Cl)c3F)(C(F)(F)F)C2)ccc1C(=O)N[C@H]1CC[C@@H](C#N)CC1 (single isomer, unassigned) [Example 3.91, N-(cis-4-cyanocyclohexyl)-2-methyl-4-[(5R or S)-5-[3-chloro-2-fluoro-5-(trifluoromethyl)phenyl]-5-(trifluoromethyl)-4H-isoxazol-3-yl]benzamide] | < 1 µg/mL
Cc1cc(C2=NOC(c3cc(C(F)(F)F)cc(Cl)c3F)(C(F)(F)F)C2)ccc1C(=O)NN1CCN(CC(F)(F)F)C1=O (racemic) [Example 3.26, 2-methyl-N-[2-oxo-3-(2,2,2-trifluoroethyl)imidazolidin-1-yl]-4-[(5RS)-5-[3-chloro-2-fluoro-5-(trifluoromethyl)phenyl]-5-(trifluoromethyl)-4H-isoxazol-3-yl]benzamide] | < 3 µg/mL
Cc1cc(C2=NOC(c3cc(C(F)(F)F)cc(Cl)c3F)(C(F)(F)F)C2)ccc1C(=O)NC1CN(C(N)=O)C1 (single isomer, unassigned) [Example 3.71, 3-[[2-methyl-4-[(5S or R)-5-[3-chloro-2-fluoro-5-(trifluoromethyl)phenyl]-5-(trifluoromethyl)-4H-isoxazol-3-yl]benzoyl]amino]azetidine-1-carboxamide] | < 1 µg/mL
Cc1cc(C2=NO[C@@](c3cc(C(F)(F)F)cc(Cl)c3F)(C(F)(F)F)C2)ccc1C(=O)N[C@@H]1CC[C@H](C#N)C1 (single isomer, unassigned) [Example 3.90, 4-[(5S or R)-5-[3-chloro-2-fluoro-5-(trifluoromethyl)phenyl]-5-(trifluoromethyl)-4H-isoxazol-3-yl]-N-[cis-3-cyanocyclopentyl]-2-methyl-benzamide] | < 1 µg/mL
Cc1cc(C2=NOC(c3cc(C(F)(F)F)cc(Cl)c3F)(C(F)(F)F)C2)ccc1C(=O)NC1CC2(COC2)C1 (single isomer, unassigned) [Example 3.62, 2-methyl-N-(2-oxaspiro[3.3]heptan-6-yl)-4-[(5R or S)-5-[3-chloro-2-fluoro-5-(trifluoromethyl)phenyl]-5-(trifluoromethyl)-4H-isoxazol-3-yl]benzamide] | < 1 µg/mL
Cc1cc(C2=NOC(c3cc(C(F)(F)F)cc(Cl)c3F)(C(F)(F)F)C2)ccc1C(=O)NC1CS(=O)(=O)C1 (single isomer, unassigned) [Example 3.52, 4-[(5R or S)-5-[3-chloro-2-fluoro-5-(trifluoromethyl)phenyl]-5-(trifluoromethyl)-4H-isoxazol-3-yl]-N-(1,1-dioxothietan-3-yl)-2-methyl-benzamide] | < 1 µg/mL
CCN1C[C@H](NC(=O)c2ccc(C3=NOC(c4cc(C(F)(F)F)cc(Cl)c4F)(C(F)(F)F)C3)cc2C)CC1=O (single isomer, unassigned) [Example 3.87, 4-[(5R or S)-5-[3-chloro-2-fluoro-5-(trifluoromethyl)phenyl]-5-(trifluoromethyl)-4H-isoxazol-3-yl]-N-[(3R)-1-ethyl-5-oxo-pyrrolidin-3-yl]-2-methyl-benzamide] | < 1 µg/mL
Cc1cc(C2=NOC(c3cc(C(F)(F)F)cc(Cl)c3F)(C(F)(F)F)C2)ccc1C(=O)Nc1cccc(C#N)c1 (single isomer, unassigned) [Example 3.81, N-(3-cyanophenyl)-2-methyl-4-[(5S or R)-5-[3-chloro-2-fluoro-5-(trifluoromethyl)phenyl]-5-(trifluoromethyl)-4H-isoxazol-3-yl]benzamide] | < 3 µg/mL
Cc1cc(C2=NOC(c3cc(C(F)(F)F)cc(Cl)c3F)(C(F)(F)F)C2)ccc1C(=O)N[C@@H]1CCN(CC(F)(F)F)C1 (single isomer, unassigned) [Example 3.80, 4-[(5S or R)-5-[3-chloro-2-fluoro-5-(trifluoromethyl)phenyl]-5-(trifluoromethyl)-4H-isoxazol-3-yl]-2-methyl-N-[(3R)-1-(2,2,2-trifluoroethyl)pyrrolidin-3-yl]benzamide] | < 1 µg/mL
CO[C@H]1C[C@@H](NC(=O)c2ccc(C3=NOC(c4cc(C(F)(F)F)cc(Cl)c4F)(C(F)(F)F)C3)cc2C)C1 (mixture of isomers) [Example 3.47, 4-[(5RS)-5-[3-chloro-2-fluoro-5-(trifluoromethyl)phenyl]-5-(trifluoromethyl)-4H-isoxazol-3-yl]-N-(cis-3-methoxycyclobutyl)-2-methyl-benzamide] | < 3 µg/mL
Cc1cc(C2=NOC(c3cc(C(F)(F)F)cc(Cl)c3F)(C(F)(F)F)C2)ccc1C(=O)N[C@@H]1CNC1=O (single isomer, unassigned) [Example 3.53, 4-[(5R or S)-5-[3-chloro-2-fluoro-5-(trifluoromethyl)phenyl]-5-(trifluoromethyl)-4H-isoxazol-3-yl]-2-methyl-N-[(3R)-2-oxoazetidin-3-yl]benzamide] | < 1 µg/mL
Cc1cc(C2=NOC(c3cc(C(F)(F)F)cc(Cl)c3F)(C(F)(F)F)C2)ccc1C(=O)N[C@@H]1CNC(=O)C1 (single isomer, unassigned) [Example 3.84, 4-[(5R or S)-5-[3-chloro-2-fluoro-5-(trifluoromethyl)phenyl]-5-(trifluoromethyl)-4H-isoxazol-3-yl]-2-methyl-N-[(3S)-5-oxopyrrolidin-3-yl]benzamide] | < 1 µg/mL
